Test results from publication PMC10518257 (Nature Cancer, 2023).

How the values were obtained:
Experiment in all cases: Kinase selectivity profiling at a single concentration (Carna Biosciences)
Type in all cases: biochemical
[1] = molecular target: T1, panel of 255 (vepafestinib) or 256 (all other inhibitors) recombinant kinases (Homo sapiens, UniProt P24941); details: 22 nM
T1 construct: purchased Carna Biosciences

[2] = molecular target: T2, panel of 255 (vepafestinib) or 256 (all other inhibitors) recombinant kinases (Homo sapiens, UniProt P41743); details: 22 nM
T2 construct: purchased Carna Biosciences
T2 sequence (P41743 whole entry): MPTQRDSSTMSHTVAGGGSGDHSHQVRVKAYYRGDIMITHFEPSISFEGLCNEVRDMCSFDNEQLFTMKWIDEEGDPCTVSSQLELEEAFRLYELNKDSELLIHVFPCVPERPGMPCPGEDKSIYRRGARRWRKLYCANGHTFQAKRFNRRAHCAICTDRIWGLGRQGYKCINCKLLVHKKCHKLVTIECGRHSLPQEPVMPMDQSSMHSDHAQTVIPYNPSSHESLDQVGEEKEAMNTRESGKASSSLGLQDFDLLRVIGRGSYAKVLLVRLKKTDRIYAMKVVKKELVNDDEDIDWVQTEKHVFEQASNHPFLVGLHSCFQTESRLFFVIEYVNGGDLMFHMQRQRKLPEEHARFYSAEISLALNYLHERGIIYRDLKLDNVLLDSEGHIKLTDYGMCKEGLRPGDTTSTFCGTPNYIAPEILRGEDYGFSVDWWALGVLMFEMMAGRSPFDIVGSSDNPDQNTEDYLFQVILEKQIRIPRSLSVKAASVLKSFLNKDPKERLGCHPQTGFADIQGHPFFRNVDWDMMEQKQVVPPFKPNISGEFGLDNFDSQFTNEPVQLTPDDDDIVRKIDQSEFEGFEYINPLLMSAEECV

[3] = molecular target: T3, panel of 255 (vepafestinib) or 256 (all other inhibitors) recombinant kinases (Homo sapiens, UniProt Q9UF33); details: 22 nM
T3 construct: purchased Carna Biosciences
T3 sequence (Q9UF33 23-1036): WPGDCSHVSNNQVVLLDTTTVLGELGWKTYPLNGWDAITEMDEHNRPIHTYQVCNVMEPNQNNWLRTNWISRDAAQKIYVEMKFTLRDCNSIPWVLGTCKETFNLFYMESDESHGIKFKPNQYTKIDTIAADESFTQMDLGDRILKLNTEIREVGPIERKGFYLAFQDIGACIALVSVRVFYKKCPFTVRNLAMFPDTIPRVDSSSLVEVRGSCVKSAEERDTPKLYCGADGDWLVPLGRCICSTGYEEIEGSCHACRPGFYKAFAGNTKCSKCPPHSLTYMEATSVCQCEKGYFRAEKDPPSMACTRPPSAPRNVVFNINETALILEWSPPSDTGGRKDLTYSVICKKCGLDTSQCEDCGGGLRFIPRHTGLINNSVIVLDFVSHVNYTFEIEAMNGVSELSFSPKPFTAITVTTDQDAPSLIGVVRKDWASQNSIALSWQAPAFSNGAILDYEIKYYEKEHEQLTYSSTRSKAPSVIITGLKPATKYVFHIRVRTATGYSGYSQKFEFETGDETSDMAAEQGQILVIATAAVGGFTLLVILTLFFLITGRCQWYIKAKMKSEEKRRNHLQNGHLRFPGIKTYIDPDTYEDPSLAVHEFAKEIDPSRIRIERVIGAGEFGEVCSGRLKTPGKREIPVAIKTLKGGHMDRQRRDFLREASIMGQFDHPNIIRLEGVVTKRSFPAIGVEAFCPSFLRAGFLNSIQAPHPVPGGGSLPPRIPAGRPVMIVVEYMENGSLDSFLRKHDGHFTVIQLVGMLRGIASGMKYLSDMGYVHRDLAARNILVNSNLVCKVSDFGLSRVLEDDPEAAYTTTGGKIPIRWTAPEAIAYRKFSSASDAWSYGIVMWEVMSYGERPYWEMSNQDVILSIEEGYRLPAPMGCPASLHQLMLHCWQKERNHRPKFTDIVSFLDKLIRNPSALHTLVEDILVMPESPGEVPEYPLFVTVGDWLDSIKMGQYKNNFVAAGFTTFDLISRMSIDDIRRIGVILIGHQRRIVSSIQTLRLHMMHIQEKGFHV

[4] = molecular target: T4, panel of 255 (vepafestinib) or 256 (all other inhibitors) recombinant kinases (Homo sapiens, UniProt P30530); details: 22 nM
T4 construct: purchased Carna Biosciences
T4 sequence (P30530 26-894): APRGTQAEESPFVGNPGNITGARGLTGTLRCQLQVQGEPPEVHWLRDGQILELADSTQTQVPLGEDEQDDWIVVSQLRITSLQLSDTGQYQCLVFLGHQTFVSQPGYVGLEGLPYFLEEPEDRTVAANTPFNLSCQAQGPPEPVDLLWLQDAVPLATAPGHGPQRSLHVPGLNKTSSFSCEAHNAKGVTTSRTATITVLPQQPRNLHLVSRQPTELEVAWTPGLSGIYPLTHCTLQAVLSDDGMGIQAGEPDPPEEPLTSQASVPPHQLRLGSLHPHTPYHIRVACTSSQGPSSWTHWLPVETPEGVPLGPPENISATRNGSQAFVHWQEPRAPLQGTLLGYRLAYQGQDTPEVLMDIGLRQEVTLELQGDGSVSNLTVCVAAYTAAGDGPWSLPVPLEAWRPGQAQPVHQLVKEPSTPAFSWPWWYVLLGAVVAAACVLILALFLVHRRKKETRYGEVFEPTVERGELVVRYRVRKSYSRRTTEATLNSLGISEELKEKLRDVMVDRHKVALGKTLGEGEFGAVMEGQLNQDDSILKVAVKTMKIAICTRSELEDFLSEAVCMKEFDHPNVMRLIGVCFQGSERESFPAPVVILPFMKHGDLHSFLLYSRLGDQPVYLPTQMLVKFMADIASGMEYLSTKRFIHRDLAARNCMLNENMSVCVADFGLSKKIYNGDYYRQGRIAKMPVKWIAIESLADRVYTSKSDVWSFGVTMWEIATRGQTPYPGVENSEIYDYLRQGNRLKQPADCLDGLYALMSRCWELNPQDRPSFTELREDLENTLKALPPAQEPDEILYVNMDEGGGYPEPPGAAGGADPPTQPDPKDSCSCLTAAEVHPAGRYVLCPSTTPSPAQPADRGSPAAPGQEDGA

[5] = molecular target: T5, panel of 255 (vepafestinib) or 256 (all other inhibitors) recombinant kinases (Homo sapiens, UniProt P17948); details: 22 nM
T5 construct: purchased Carna Biosciences
T5 sequence (P17948 27-1338): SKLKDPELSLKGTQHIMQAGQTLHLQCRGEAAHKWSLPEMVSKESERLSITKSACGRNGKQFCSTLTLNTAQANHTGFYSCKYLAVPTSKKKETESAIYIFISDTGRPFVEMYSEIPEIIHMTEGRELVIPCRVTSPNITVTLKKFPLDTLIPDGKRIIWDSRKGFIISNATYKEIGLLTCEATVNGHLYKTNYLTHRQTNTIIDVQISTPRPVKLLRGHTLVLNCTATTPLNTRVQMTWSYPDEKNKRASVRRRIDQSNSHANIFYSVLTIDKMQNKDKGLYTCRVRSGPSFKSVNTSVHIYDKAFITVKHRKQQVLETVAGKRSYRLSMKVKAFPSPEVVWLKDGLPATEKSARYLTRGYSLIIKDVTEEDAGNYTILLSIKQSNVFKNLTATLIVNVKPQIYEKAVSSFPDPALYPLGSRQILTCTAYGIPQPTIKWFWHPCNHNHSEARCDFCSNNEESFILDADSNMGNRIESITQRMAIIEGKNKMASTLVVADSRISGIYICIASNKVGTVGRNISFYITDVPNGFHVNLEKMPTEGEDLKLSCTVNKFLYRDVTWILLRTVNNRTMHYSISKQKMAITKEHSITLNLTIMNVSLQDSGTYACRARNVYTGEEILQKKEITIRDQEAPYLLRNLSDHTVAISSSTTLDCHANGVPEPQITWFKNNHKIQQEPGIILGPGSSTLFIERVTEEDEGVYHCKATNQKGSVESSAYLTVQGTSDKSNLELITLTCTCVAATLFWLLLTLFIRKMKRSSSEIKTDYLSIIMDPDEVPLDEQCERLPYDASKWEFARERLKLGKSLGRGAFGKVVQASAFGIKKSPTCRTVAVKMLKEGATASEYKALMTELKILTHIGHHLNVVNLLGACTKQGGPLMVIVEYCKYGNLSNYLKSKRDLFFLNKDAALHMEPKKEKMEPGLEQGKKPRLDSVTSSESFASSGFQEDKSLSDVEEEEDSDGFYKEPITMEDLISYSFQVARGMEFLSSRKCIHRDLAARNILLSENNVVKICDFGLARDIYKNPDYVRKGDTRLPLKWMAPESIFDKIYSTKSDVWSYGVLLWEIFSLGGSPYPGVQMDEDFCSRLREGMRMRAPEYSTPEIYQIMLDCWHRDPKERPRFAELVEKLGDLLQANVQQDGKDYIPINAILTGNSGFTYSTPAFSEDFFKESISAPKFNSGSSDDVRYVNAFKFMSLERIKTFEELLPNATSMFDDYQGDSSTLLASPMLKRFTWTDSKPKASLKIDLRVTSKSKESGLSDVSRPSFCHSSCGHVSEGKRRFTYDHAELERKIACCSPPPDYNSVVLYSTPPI

[6] = molecular target: T6, panel of 255 (vepafestinib) or 256 (all other inhibitors) recombinant kinases (Homo sapiens, UniProt P23458); details: 17 nM
T6 construct: purchased Carna Biosciences

[7] = molecular target: T7, panel of 255 (vepafestinib) or 256 (all other inhibitors) recombinant kinases (Homo sapiens, UniProt Q16288); details: 17 nM
T7 construct: purchased Carna Biosciences
T7 sequence (Q16288 32-839): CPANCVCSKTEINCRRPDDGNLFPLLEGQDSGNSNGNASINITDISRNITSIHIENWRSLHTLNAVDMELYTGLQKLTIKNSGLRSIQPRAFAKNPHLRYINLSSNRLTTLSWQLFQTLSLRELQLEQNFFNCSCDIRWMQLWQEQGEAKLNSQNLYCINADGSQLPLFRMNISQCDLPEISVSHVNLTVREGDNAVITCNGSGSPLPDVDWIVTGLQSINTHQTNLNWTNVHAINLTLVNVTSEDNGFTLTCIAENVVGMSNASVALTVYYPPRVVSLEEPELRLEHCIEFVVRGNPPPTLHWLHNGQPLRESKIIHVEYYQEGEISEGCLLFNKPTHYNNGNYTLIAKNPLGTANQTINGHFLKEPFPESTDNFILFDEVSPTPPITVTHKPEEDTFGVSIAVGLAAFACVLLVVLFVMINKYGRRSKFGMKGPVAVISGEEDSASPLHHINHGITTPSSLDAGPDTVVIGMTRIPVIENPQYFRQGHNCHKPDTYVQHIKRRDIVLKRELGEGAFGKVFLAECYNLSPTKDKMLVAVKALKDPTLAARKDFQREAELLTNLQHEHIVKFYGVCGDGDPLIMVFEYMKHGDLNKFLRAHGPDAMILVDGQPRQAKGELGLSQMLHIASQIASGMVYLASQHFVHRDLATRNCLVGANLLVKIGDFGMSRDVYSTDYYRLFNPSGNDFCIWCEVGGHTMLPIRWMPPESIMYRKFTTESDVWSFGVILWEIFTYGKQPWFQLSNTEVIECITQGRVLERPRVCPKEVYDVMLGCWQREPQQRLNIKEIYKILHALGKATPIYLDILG

[8] = molecular target: T8, panel of 255 (vepafestinib) or 256 (all other inhibitors) recombinant kinases (Homo sapiens, UniProt O60674); details: 17 nM
T8 construct: purchased Carna Biosciences

**Q.** For `COc1ccc(CN2C3CC2CN(c2ccc(-c4cc(OCC(C)(C)O)cn5ncc(C#N)c45)cn2)C3)cn1` [Selpercatinib], which “% Inhibiton CDK2/CycA2” value [1] is on record?
**A.** 17.9%

**Q.** What about the “% Inhibiton PKCι” value [2] of the same compound?
**A.** 12.7%

**Q.** And the “% Inhibiton EPHA6” value [3]?
**A.** 17.3%

**Q.** What about the “% Inhibiton AXL” value [4] of the same compound?
**A.** 18.1%

**Q.** And the “% Inhibiton FLT1” value [5]?
**A.** 45.4%

**Q.** `CO[C@]1(C(=O)N[C@@H](C)c2ccc(-n3cc(F)cn3)nc2)CC[C@H](c2nc(C)cc(Nc3cc(C)[nH]n3)n2)CC1` [Pralsetinib] was tested. Which “% Inhibiton JAK1” value [6] did it give?
**A.** 89.1%

**Q.** And the “% Inhibiton TRKC” value [7]?
**A.** 57.7%

**Q.** What about the “% Inhibiton JAK2” value [8] of the same compound?
**A.** 101.5%
